Measurements taken from US20090069336A1, “PYRIMIDOTHIOPHENE COMPOUNDS” (VERNALIS (CAMBRIDGE) LIMITED., priority 2004, published 2009).

molecular target: T1, human full-length HSP90 (Homo sapiens, UniProt P08238); assay: Fluorescence polarization assay (competitive displacement of probe RBT0051001-FAM from HSP90); assay type: binding; conditions: activity range stated in each example; read-out: activity in the fluorescence polarization assay
T1 construct: E. coli expressed human full-length HSP90 protein, purified >95%; made in house; host or cells: E. coli
From the text: Fluorescence Polarization Assay
Fluorescence polarization {also known as fluorescence anisotropy} measures the rotation of a fluorescing species in solution, where the larger molecule the more polarized the fluorescence emission. When the fluorophore is excited with polarized light, the emitted light is also polarized. The molecular size is proportional to the polarization of the fluorescence emission.
The fluoroscein-labelled probe —RBT0051001-FAM—
binds to HSP90 {full-length human, full-length yeast or N-terminal domain HSP90} and the anisotropy {rotation of the probe:protein complex} is measured.
Test compound is added to the assay plate, left to equilibrate and the anisotropy measured again. Any change in anisotropy is due to competitive binding of compound to HSP90, thereby releasing probe.
Chemicals are of the highest purity commercially available and all aqueous solutions are made up in AR water. • 1) Costar 96-well black assay plate #3915 • 2) Assay buffer of (a) 100 mM Tris pH7.4; (b) 20 mM KCl; (c) 6 mM MgCl2. Stored at room temperature. • 3) BSA (bovine serum albumen) 10 mg/ml (New England Biolabs # B9001S) • 4) 20 mM probe in 100% DMSO stock concentration. Stored in the dark at RT. Working concentration is 200 nM diluted in AR water and stored at 4° C. Final concentration in assay 80 nM. • 5) E. coli expressed human full-length HSP90 protein, purified >95% (see, e.g., Panaretou et al., 1998) and stored in 50 μL aliquots at −80° C.
• 1) Add 100 μl 1× buffer to wells 11A and 12A (=FP BLNK) • 2) Prepare assay mix—all reagents are kept on ice with a lid on the bucket as the probe is light-sensitive.
• 3) Aliquot 100 μl assay mix to all other wells • 4) Seal plate and leave in dark at room temp for 20 minutes to equilibrate Compound Dilution Plate—1×3 dilution series • 1) In a clear 96-well v-bottom plate-{# VWR 007/008/257} add 10 μl 100% DMSO to wells B1 to H11 • 2) To wells A1 to A11 add 17.5 μl 100% DMSO • 3) Add 2.5 μl cpd to A1. This gives 2.5 mM {50×} stock cpd-assuming cpds 20 mM. • 4) Repeat for wells A2 to A10. Control in columns 11 and 12. • 5) Transfer 5 μl from row A to row B—not column 12. Mix well. • 6) Transfer 5 μl from row B to row C. […] In column 11 {provides standard curve} only add compound B11-H11. Add 2 μl of 100 mM standard cpd to wells B12-H12 {is positive control} • 13) The Z′ factor is calculated from zero controls and positive wells. It typically gives a value of 0.7-0.9.
The compounds tested in the above assay were assigned to one of two activity ranges, namely A=<10 μM; B=>10 μM, and those assignments are reported above.

T1 sequence (P08238 whole entry): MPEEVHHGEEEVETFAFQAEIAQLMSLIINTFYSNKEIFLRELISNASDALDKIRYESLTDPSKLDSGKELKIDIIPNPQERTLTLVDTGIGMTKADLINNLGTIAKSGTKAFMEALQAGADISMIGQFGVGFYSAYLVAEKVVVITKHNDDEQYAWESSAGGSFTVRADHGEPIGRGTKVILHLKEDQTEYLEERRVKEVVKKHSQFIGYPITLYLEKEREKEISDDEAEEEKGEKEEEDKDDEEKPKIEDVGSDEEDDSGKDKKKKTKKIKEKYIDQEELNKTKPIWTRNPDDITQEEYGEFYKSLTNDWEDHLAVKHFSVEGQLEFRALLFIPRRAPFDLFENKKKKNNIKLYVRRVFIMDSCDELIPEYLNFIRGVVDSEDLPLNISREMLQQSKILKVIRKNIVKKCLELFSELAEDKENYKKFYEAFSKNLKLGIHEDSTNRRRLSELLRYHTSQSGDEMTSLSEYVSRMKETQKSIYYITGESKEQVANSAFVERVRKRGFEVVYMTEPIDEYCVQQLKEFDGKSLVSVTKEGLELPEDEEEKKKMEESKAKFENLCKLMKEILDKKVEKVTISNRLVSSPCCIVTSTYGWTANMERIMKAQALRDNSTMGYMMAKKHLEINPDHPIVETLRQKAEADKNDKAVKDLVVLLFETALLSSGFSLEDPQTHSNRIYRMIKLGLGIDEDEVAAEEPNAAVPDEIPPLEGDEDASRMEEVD

IC50 | SMILES
< 10 µM | Cc1ccc(-c2nc(N)nc3sc(-c4ncon4)cc23)c(C)c1 [Example 10, 4-(2,4-dimethyl-phenyl)-6-[1,2,4]oxadiazol-3-yl-thieno[2,3-d]pyrimidin-2-ylamine]
< 10 µM | CCN(CC)CCOc1cc(-c2nc(N)nc3sc(-c4cc(C)n[nH]4)cc23)c(Cl)cc1Cl [Example 35, 4-[2,4-dicholoro-5-(2-diethylamino-ethoxy)-phenyl]-6-(5-methyl-2H-pyrazol-3-yl)-thieno[2,3-d]pyrimidine-2-ylamine]
< 10 µM | CCN(CC)CCOc1cc(-c2nc(N)nc3sc(C(=O)O)cc23)c(Cl)cc1Cl [Example 36, 2-Amino-4-[2,4-dichloro-5-(2-diethylamino-ethoxy)-phenyl]-thieno[2,3-d]pyrimidine-6-carboxylic acid]
< 10 µM | Nc1nc(-c2cc(OCc3ccccc3)c(Cl)cc2Cl)c2cc(C(=O)O)sc2n1 [Example 37, 2-Amino-4-[5-benzyloxy-2,4-dichloro-phenyl]-thieno[2,3-d]pyrimidine-6-carboxylic acid]
< 10 µM | Nc1nc(-c2ccc(Cl)cc2Cl)c2cc(-c3n[nH]c(N)n3)sc2n1 [Example 38, 6-(5-Amino-1H-[1,2,4]triazol-3-yl)-4-(2,4-dichloro-phenyl)-thieno[2,3-d]pyrimidin-2-ylamine]
< 10 µM | CCN(CC)CCOc1cc(-c2nc(N)nc3sc(-c4n[nH]c(N)n4)cc23)c(Cl)cc1Cl [Example 39, 6-(5-Amino-1H-[1,2,4]triazol-3-yl)-4-[2,4-dichloro-5-(2-diethylamino-ethoxy)-phenyl]-thieno[2,3-d]pyrimidin-2-ylamine]
< 10 µM | CCN(CC)CCOc1cc(-c2nc(N)nc3sc(-c4nn[nH]n4)cc23)c(Cl)cc1Cl [Example 40, 4-[2,4-Dichloro-5-(2-diethylamino-ethoxy)-phenyl]-6-(2H-tetrazol-5-yl)-thieno[2,3-d]pyrimidin-2-ylamine]
< 10 µM | CCOC(=O)/C=C/c1cc2c(-c3cc(OCCN(CC)CC)c(Cl)cc3Cl)nc(N)nc2s1 [Example 41, 3-{2-Amino-4-[2,4-Dichloro-5-(2-diethylamino-ethoxy)-phenyl]-thieno[2,3-d]pyrimidin-6-yl}-acrylic acid ethyl ester]

system: not listed separately; assay: Sulforhodamine B (SRB) growth inhibition / growth arrest assay; assay type: cell-based; conditions: cell line not stated
Experimental: A growth inhibition assay was also employed for the evaluation of candidate HSP90 inhibitors:
Assessment of cytotoxicity by Sulforhodamine B (SRB) assay: calculation of 50% inhibitory concentration (IC50).
• 1) Determine cell number by haemocytometer. • 2) Using an 8 channel multipipettor, add 160 μl of the cell suspension (3600 cells/well or 2×10^4 cells/ml) to each well of a 96-well microtitre plate. • 3) Incubate overnight at 37° C. in a CO2 incubator. […]
• 8) Tip off medium into sink and immerse plate slowly into 10% ice cold trichloroacetic acid (TCA). […] Leave for 15 mins. • 12) Wash off unbound SRB stain with four washes of 1% acetic acid. • 13) Dry plates in incubator. • 14) Solubilise SRB using 100 μl of 10 mM Tris base and put plates on plate shaker for 5 mins. • 15) Determine absorbance at 540 nm using a plate reader. Calculate mean absorbance for quadruplicate wells and express as a percentage of value for control, untreated wells. • 16) Plot % absorbance values versus log drug concentration and determine the IC50.

SMILES | IC50
Cc1ccc(-c2nc(N)nc3sc(-c4ncon4)cc23)c(C)c1 [Example 10, 4-(2,4-dimethyl-phenyl)-6-[1,2,4]oxadiazol-3-yl-thieno[2,3-d]pyrimidin-2-ylamine] | < 50 µM
